Reference: US20130005568A1, “SAFENED HERBICIDAL MIXTURES” (E.I. DU PONT DE NEMOURS AND COMPANY, priority 2011, published 2013)

Experiments:
Assay in all cases: Test G: turf grass and weed postemergence plant response rating
Chickweed = assay type: in vivo, Stellaria media (L.) Vill.; details: Chickweed, postemergence, greenhouse, three weeks, 0-100 scale
Source text: (§1) For all of the following biological tests, plant response ratings were based on a 0-100 scale where zero is growth equivalent to that of untreated plants (no plant response) and 100 represents no additional growth occurring after herbicide treatment.
(§2) Plants of the turf grass species: zoysia (Zoysia japonica Steud.), bermudagrass (Cynodon dactylon (L.) Pers.), tall fescue (Festuca arundinacea Shreib.), creeping bentgrass (Agrostis stoonoifera L.), perennial ryegrass (Lolium perenne L.) and hard fescue (Festuca species) were grown under greenhouse conditions for four months. Plants were clipped as needed to plant heights of 5-10 cm. Weeds typically found in turf: annual bluegrass (Poa annua L.), common chickweed (Stellaria media (L.) Vill.), large crabgrass (Digitaria sanguinales (L.) Scop.), dandelion (Taraxacum officinale Weber in Wiggers), goosegrass (Eleusine indica (L.) Gaertn.), henbit (Lamium amplexicaule L.), venice mallow (Hibiscus trionium L.) and purple nutsedge (Cyperus rotundus L.) were also grown under greenhouse conditions so that plants were 5-20 cm tall when they were treated. Herbicide mixtures were formulated, dissolved/dispersed in water containing 0.25% non-ionic surfactant, and sprayed postemergence to these turf grasses and weeds. Treated plants were grown under greenhouse conditions for three weeks before visual evaluations of plant responses were recorded.

Goosegrass = assay type: in vivo, Eleusine indica (L.) Gaertn.; details: Goosegrass, postemergence, greenhouse, three weeks, 0-100 scale
Source text: as §1, §2

Purple nutsedge = assay type: in vivo, Cyperus rotundus L.; details: Purple nutsedge, postemergence, greenhouse, three weeks, 0-100 scale
Source text: as §1, §2

Dandelion = assay type: in vivo, Taraxacum officinale Weber in Wiggers; details: Dandelion, postemergence, greenhouse, three weeks, 0-100 scale
Source text: as §1, §2

Venice mallow = assay type: in vivo, Hibiscus trionium L.; details: Venice mallow, postemergence, greenhouse, three weeks, 0-100 scale
Source text: as §1, §2

Zoysia grass = assay type: in vivo, Zoysia japonica Steud.; details: Zoysia grass, postemergence, greenhouse, three weeks, 0-100 scale
Source text: as §1, §2

Annual bluegrass = assay type: in vivo, Poa annua L.; details: Annual bluegrass, postemergence, greenhouse, three weeks, 0-100 scale
Source text: as §1, §2

Bermudagrass = assay type: in vivo, Cynodon dactylon (L.) Pers.; details: Bermudagrass, postemergence, greenhouse, three weeks, 0-100 scale
Source text: as §1
Plants of the turf grass species: zoysia (Zoysia japonica Steud.), bermudagrass (Cynodon dactylon (L.) Pers.), tall fescue (Festuca arundinacea Shreib.), creeping bentgrass (Agrostis stoonoifera L.), perennial ryegrass (Lolium perenne L.) and hard fescue (Festuca species) were grown under greenhouse conditions for four months. Plants were clipped as needed to plant heights of 5-10 cm. […] Herbicide mixtures were formulated, dissolved/dispersed in water containing 0.25% non-ionic surfactant, and sprayed postemergence to these turf grasses and weeds. Treated plants were grown under greenhouse conditions for three weeks before visual evaluations of plant responses were recorded.

Large crabgrass = assay type: in vivo, Digitaria sanguinales (L.) Scop.; details: Large crabgrass, postemergence, greenhouse, three weeks, 0-100 scale
Source text: as §1, §2

Tall fescue = assay type: in vivo, Festuca arundinacea Shreib.; details: Tall fescue, postemergence, greenhouse, three weeks, 0-100 scale
Source text: as §1, §2

Hard fescue = assay type: in vivo, Festuca species; details: Hard fescue, postemergence, greenhouse, three weeks, 0-100 scale
Source text: as §1, §2

Creeping bentgrass = assay type: in vivo, Agrostis stoonoifera L.; details: Creeping bentgrass, postemergence, greenhouse, three weeks, 0-100 scale
Source text: as §1, §2

Henbit = assay type: in vivo, Lamium amplexicaule L.; details: Henbit, postemergence, greenhouse, three weeks, 0-100 scale
Source text: as §1, §2

Perennial ryegrass = assay type: in vivo, Lolium perenne L.; details: Perennial ryegrass, postemergence, greenhouse, three weeks, 0-100 scale
Source text: as §1, §2

[1] = herbicide 80 g ai/ha + Compound 1 125 g ai/ha

COc1cc(OC)nc(NC(=O)NS(=O)(=O)c2ncccc2C(=O)N(C)C)n1 [Nicosulfuron, nicosulfuron]
Observed Response, Herbicide mixture with Compound 1 (Chickweed; [1]): 100
Observed Response, Herbicide alone (Chickweed; herbicide 80 g ai/ha): 100
Observed Response, Herbicide mixture with Compound 1 (Goosegrass; [1]): 90
Observed Response, Herbicide alone (Goosegrass; herbicide 80 g ai/ha): 80
Observed Response, Herbicide mixture with Compound 1 (Purple nutsedge; [1]): 80
Observed Response, Herbicide alone (Purple nutsedge; herbicide 80 g ai/ha): 80
Observed Response, Herbicide mixture with Compound 1 (Dandelion; [1]): 100
Observed Response, Herbicide alone (Dandelion; herbicide 80 g ai/ha): 100
Observed Response, Herbicide mixture with Compound 1 (Venice mallow; [1]): 80
Observed Response, Herbicide alone (Venice mallow; herbicide 80 g ai/ha): 40
Observed Response, Herbicide mixture with Compound 1 (Zoysia grass; [1]): 0
Observed Response, Herbicide alone (Zoysia grass; herbicide 80 g ai/ha): 25
Observed Response, Herbicide mixture with Compound 1 (Annual bluegrass; [1]): 100
Observed Response, Herbicide alone (Annual bluegrass; herbicide 80 g ai/ha): 100
Observed Response, Herbicide mixture with Compound 1 (Bermudagrass; [1]): 0
Observed Response, Herbicide alone (Bermudagrass; herbicide 80 g ai/ha): 0
Observed Response, Herbicide mixture with Compound 1 (Large crabgrass; [1]): 100
Observed Response, Herbicide alone (Large crabgrass; herbicide 80 g ai/ha): 100
Observed Response, Herbicide mixture with Compound 1 (Tall fescue; [1]): 60
Observed Response, Herbicide alone (Tall fescue; herbicide 80 g ai/ha): 60
Observed Response, Herbicide mixture with Compound 1 (Hard fescue; [1]): 30
Observed Response, Herbicide alone (Hard fescue; herbicide 80 g ai/ha): 60
Observed Response, Herbicide mixture with Compound 1 (Creeping bentgrass; [1]): 88
Observed Response, Herbicide alone (Creeping bentgrass; herbicide 80 g ai/ha): 80
Observed Response, Herbicide mixture with Compound 1 (Henbit; [1]): 100
Observed Response, Herbicide alone (Henbit; herbicide 80 g ai/ha): 100
Observed Response, Herbicide mixture with Compound 1 (Perennial ryegrass; [1]): 50
Observed Response, Herbicide alone (Perennial ryegrass; herbicide 80 g ai/ha): 80
